# Measurements taken from patent publication US20090318456A1, “SUBSTITUTED PTERIDINES FOR THE TREATMENT AND PREVENTION OF VIRAL INFECTIONS” (Gilead Sciences, Inc., priority 2006, published 2009).
# pEC50: −log10 of the molar value. Read-outs that look alike come from different tables or passages of the source.
# Key:
# [1] = system: HCV replicon; assay: Anti-HCV replicon assay (EC50, luciferase); assay type: cell-based, Hepatitis C virus (HCV)
# Procedure: (§1) The anti HCV activity of specifically 2,4,6-trisubstituted pteridine derivatives was tested in a human hepatoma Huh-7 cell line harbouring a HCV replicon. The assay comprised the following steps:
# (§2) Step 1: compound preparation and serial dilution involved the following alternatives, depending upon the water solubility of pteridine derivative being tested: • 1. with respect to water soluble 2,4,6-trisubstituted pteridine derivatives, 500 μL of solution in cell media (DMEM, 10% FBS, P/S, L-Glutamine) was prepared with a concentration that is twice the concentration of the starting final serial dilution concentration. 150 μL of the solution was added to the pre-specified wells in column 1 of a 96-well cell culture plate (PerkinElmer, white plate, cat. #6005181, for EC50 assay; black plate, cat. #6005182 for CC50 assay). The rest of the plate, i.e. columns 2-12, was filled with 100 μL of cell media. The plate was then placed on a Precision 2000 Workstation in order to start serial dilution. Pteridine compounds were diluted three times each step from column 1 to column 10. Column 11 was used as a blank control (no pteridine compound added). • 2. With respect to poorly water soluble pteridine derivatives, DMSO was used as a solvent, and serial dilution was performed in 50% DMSO in water, in a 384-well plate. A solution containing the relevant compound at 100-fold the concentration of the starting final serial dilution concentration was prepared in 50% DMSO in water and added to the pre-specified wells in column 1 of a polypropylene 384-well plate. This plate was then placed on a Precision 2000 Workstation in order to start serial dilution. After serial dilution, 2 μL of the solution was transferred from the 384-well plate to a 96-well cell culture plate containing 100 μL of cell media on a Biomek FX Workstation. The DMSO concentration in the final assay condition was 0.5% after cells have been added to the plate and the total volume in each well was brought to 200 μL. Step 2: to each well of the serial dilution plate prepared in step 1, 100 μL of cell media containing 6000 suspended Huh-7 HCV replicon cells was added with a Multidrop workstation. Plates were incubated for 3 days at 37° C. with 5% CO2. Step 3: detection: • 1) with respect to the EC50 assay, the media in a 96-well cell culture plate was aspirated with a Biotek EL405 plate-washer. A volume of 200 μL of a solution containing a 1:1 mixture of a cell-lysis buffer (commercially available from Promega, Luciferase Cell Culture Lysis 5× Reagent, cat. #E1531) and a luciferase substrate solution (commercially available from Promega, Luciferase Assay, cat. # E4550) was added to each well of the plate with Multidrop. The plate was incubated for 30 minutes at room temperature before the luminescence signal was measured with a TopCount plate-reader. • 2) with respect to the CC50 assay, 100 μL of a pre-mixed CellTiter-Glo (commercially available from Promega, cat. # G7572) solution was added directly to the cell culture in each well of the plate and the luminescence signal was measured with a TopCount plate-reader after 10 minutes of incubation at room temperature.
# (§3) Results are expressed by the following data: • the 50% effective concentration (EC50), i.e. the concentration that protects 50% of the cell monolayer from virus-induced cythopathic effect, and • the 50% cytostatic concentration (CC50), i.e. the concentration that results in 50% inhibition of cell growth.
# [2] = CC50 assay (CellTiter-Glo) in Huh-7 HCV replicon cells; assay type: cell-based, human; conditions: human
# Procedure: as §1, §2, §3
# [3] = system: Huh-7 HCV replicon cells; assay: as above; assay type: cell-based, human
# Procedure: as §1, §2, §3
# [4] = system: HIV IIIb strain; assay: Anti-HIV assay in MT-4 cells; assay type: cell-based; conditions: MT-4 cells infected with HIV IIIb, 5 days, CellTiter-Glo
# Procedure: The anti HIV activity of some of the pteridine compounds listed in example C was tested in MT-4 cells infected with HIV IIIb strain. The assay comprised the following steps: • Step 1 (sample preparation). The compound stock solutions as prepared for Example C were diluted in MT4 cell media at a concentration equal to twice the concentration of the HCV EC50 or CC50 (the highest concentration of the two was chosen) obtained in Example C. To pre-defined wells of a 384-well black cell culture plate (NUNC), a volume of 50 μL of the compound solution is added. Serial dilution is performed by the workstation across the plate. Each compound is serially diluted 5-fold in each step, for a total of 6 steps (7 total concentrations). Compounds are tested in triplicates within each plate. Negative control was performed using 40 μL cell media only. At the end of the serial dilution, each well on the plate contained 40 μL of media containing different concentrations of compounds. A volume of 20 μL was transferred to a new plate to duplicate the plate. • step 2 (starting the assay): the plates are transferred into the HIV laboratory. To each plate, a volume of 20 μL MT-4 cell suspension (10^5 cells/mL) is dispensed into each well of the plate with the Multidrop dispenser. The HIV IIIb stock solution was diluted 1 to 500 in cell media (2 μL of virus+998 μL of media). 100-120 μL of diluted virus was then added to 10 ml cell suspension (containing 106 MT-4 cells). 20 μL of this cell suspension/virus was dispensed to each well of the plates with the Multidrop dispenser. The plates were incubated at 37° C. for 5 days in the cell culture incubator in the HIV laboratory. • step 3 (detection): on day 5, 40 μL of the pre-prepared CellTiter-Glo reagent was added to each well of the plates using the Multidrop dispenser. The plates were incubated at room temperature for 10 minutes to stabilize the luminescence signal. The luminescence was measured on the Victor 2 plate reader with an integration time of 0.25-1 seconds per sample. […] It is clear from the table that none of the pteridine compounds tested is active against HIV.
# [5] = Table 1, Huh-7 HCV replicon cells, 3 days, luciferase, read-out: EC50
# [6] = Table 2, Huh-7 HCV replicon cells, 3 days, luciferase, read-out: EC50
# [7] = Table 3, Huh-7 HCV replicon cells, 3 days, luciferase, read-out: EC50
# [8] = Hepatitis C virus, 72 h, Table 4, Huh-7 HCV replicon cells, 3 days, luciferase, read-out: EC50
structure (smiles),measurement,setting,value
CC(C)Oc1nc(N)nc2ncc(-c3ccc(F)cc3)nc12 [2-amino-4-isopropoxy-6-(4-fluorophenyl)-pteridine],pEC50,"[1]; Hepatitis C virus, 72 h, Table 6, Huh-7 HCV replicon cells, 3 days, luciferase, read-out: EC50",> 6.52
same,CC50 at 3 days,[2]; Table 6,> 20 µM
COc1ccc(-c2cnc3nc(N)nc(N4CCN(C(=O)Nc5ccc(F)c(Cl)c5)CC4)c3n2)cc1OC [Example 113],pEC50,[1]; [5],> 6.52
same,CC50,"[3]; Table 1, 3 days",< 10 µM
COc1ccc(-c2cnc3nc(N)nc(N4CCN(C(=O)Nc5cccs5)CC4)c3n2)cc1OC [Example 114],pEC50,[1]; [5],> 6.52
same,CC50,"[3]; Table 1, 3 days",< 10 µM
COc1ccc(-c2cnc3nc(N)nc(N4CCN(C(=O)NCCc5cccs5)CC4)c3n2)cc1OC [Example 115],pEC50,[1]; [5],> 6.52
same,CC50,"[3]; Table 1, 3 days",< 10 µM
CCCCNC(=O)N1CCN(c2nc(N)nc3ncc(-c4ccc(OC)c(OC)c4)nc23)CC1 [Example 118],pEC50,[1]; [5],> 6.52
same,CC50,"[3]; Table 1, 3 days",< 10 µM
COc1ccc(-c2cnc3nc(N)nc(N4CCN(C(=O)N(C)c5ccccc5)CC4)c3n2)cc1OC [Example 119],pEC50,[1]; [5],> 6.52
same,CC50,"[3]; Table 1, 3 days",< 10 µM
CCN(C(=O)N1CCN(c2nc(N)nc3ncc(-c4ccc(OC)c(OC)c4)nc23)CC1)c1ccccc1 [Example 121],pEC50,[1]; [5],> 6.52
same,CC50,"[3]; Table 1, 3 days",< 10 µM
"COc1ccc(-c2cnc3nc(N)nc(N4CCN(C(=O)Nc5cccc(Cl)c5)CC4)c3n2)cc1OC [Example 122, 2-amino-4-(N-3-chloro-phenyl-carbamoyl-piperazin-1-yl)-6-(3,4-dimethoxyphenyl)pteridine]",pEC50,[1]; [5],> 6.52
same,CC50,"[3]; Table 1, 3 days",< 10 µM
"COc1ccc(-c2cnc3nc(N)nc(N4CCN(C(=O)Nc5cccc(C(F)(F)F)c5)CC4)c3n2)cc1OC [Example 123, 2-amino-4-(N-3-trifluoromethyl-phenyl-carbamoyl-piperazin-1-yl)-6-(3,4-dimethoxyphenyl)pteridine]",pEC50,[1]; [5],> 6.52
same,CC50,"[3]; Table 1, 3 days",< 10 µM
"COc1ccc(-c2cnc3nc(N)nc(N4CCN(C(=O)Nc5ccc(Br)cc5)CC4)c3n2)cc1OC [Example 124, 2-amino-4-(N-4-bromo-phenyl-carbamoyl-piperazin-1-yl)-6-(3,4-dimethoxyphenyl)pteridine]",pEC50,[1]; [5],> 6.52
same,CC50,"[3]; Table 1, 3 days",< 10 µM
"CCOc1nc(N)nc2ncc(-c3ccc(F)cc3)nc12 [Example 131, 2-amino-4-ethoxy-6-(4-fluorophenyl)-pteridine]",pEC50,"[1]; Hepatitis C virus, 72 h, Table 2, Huh-7 HCV replicon cells, 3 days, luciferase, read-out: EC50",> 6.52
same,CC50 at 3 days,[2]; Table 2,> 20 µM
CCOc1nc(N)nc2ncc(-c3ccc(OC)c(OC)c3)nc12 [Example 134],pEC50,[4],< 4.00
same,pEC50,[1]; [6],> 6.52
same,CC50,"[3]; Table 2, 3 days",> 20 µM
COc1ccc(-c2cnc3nc(N)nc(N4CCOCC4)c3n2)cc1OC [Example 158],pEC50,[4],< 4.00
same,pEC50,[1]; [6],> 6.52
same,CC50,"[3]; Table 2, 3 days",10 to 20 µM
COc1ccc(-c2cnc3nc(N)nc(N4CCN(C)CC4)c3n2)cc1OC [Example 181],pEC50,[4],< 4.00
same,pEC50,[1]; [6],> 6.52
same,CC50,"[3]; Table 2, 3 days",10 to 20 µM
CCS(=O)(=O)Nc1cccc(-c2cnc3nc(N)nc(N4CCOCC4)c3n2)c1 [Example 201],pEC50,[4],4.75
same,pEC50,[1]; [7],6.00 to 6.52
same,CC50,"[3]; Table 3, 3 days",> 20 µM
CCC(=O)Nc1ccc(-c2cnc3nc(N)nc(N4CCOCC4)c3n2)cc1 [Example 216],pEC50,[4],< 4.00
same,pEC50,[1]; [7],6.00 to 6.52
same,CC50,"[3]; Table 3, 3 days",> 20 µM
CCC(C)Nc1nc(N)nc2ncc(-c3ccc(OC)c(OC)c3)nc12 (stereo not drawn) [Example 230],pEC50,[1]; [7],6.00 to 6.52
same,CC50,"[3]; Table 3, 3 days",> 20 µM
Nc1ccc(-c2cnc3nc(N)nc(N4CCOCC4)c3n2)cc1 [Example 231],pEC50,[1]; [7],6.00 to 6.52
same,CC50,"[3]; Table 3, 3 days",> 20 µM
CCC(C)Nc1nc(N)nc2ncc(-c3ccc(OC)c(OC)c3)nc12 (stereo not drawn) [Example 234],pEC50,[1]; [7],6.00 to 6.52
same,CC50,"[3]; Table 3, 3 days",> 20 µM
CCOc1nc(NCc2ccc(F)cc2)nc2ncc(-c3ccc(F)cc3)nc12 [Example C],pEC50,"[1]; Hepatitis C virus, Huh-7, 72 h",> 6.52
same,CC50 at 3 days,[2]; Table 4,> 20 µM
"NS(=O)(=O)c1ccc(CNc2nc(NCC(F)(F)F)c3nc(-c4ccc(F)cc4)cnc3n2)cc1 [Example D, 4-{[6-(4-fluoro-phenyl)-4-(2,2,2-trifluoro-ethylamino)-pteridin-2-ylamino]-methyl}-benzenesulfonamide]",pEC50,"[1]; Hepatitis C virus, Huh-7, 72 h",> 6.52
same,CC50 at 3 days,[2]; Table 4,> 20 µM
"Fc1ccc(CNc2nc(NCC(F)(F)F)c3nc(-c4ccc(F)cc4)cnc3n2)cc1 [Example E, N2-(4-Fluoro-benzyl)-6-(4-fluoro-phenyl)-N4-(2,2,2-trifluoro-ethyl)-pteridine-2,4-diamine]",pEC50,[1]; [8],> 6.52
same,CC50 at 3 days,[2]; Table 4,< 10 µM
"CC(Nc1nc(NCC(F)(F)F)c2nc(-c3ccc(F)cc3)cnc2n1)c1ccc(S(N)(=O)=O)cc1 (stereo not drawn) [Example F, 4-{1-[6-(4-Fluoro-phenyl)-4-(2,2,2-trifluoro-ethylamino)-pteridin-2-ylamino]-ethyl}-benzenesulfonamide]",pEC50,[1]; [8],> 6.52
same,CC50 at 3 days,[2]; Table 4,< 10 µM
"CCOc1nc(NCc2ccc(S(N)(=O)=O)cc2)nc2ncc(-c3ccc(F)cc3)nc12 [Example G, 4-{[4-Ethoxy-6-(4-fluoro-phenyl)-pteridin-2-ylamino]-methyl}-benzenesulfonamide]",pEC50,[1]; [8],> 6.52
same,CC50 at 3 days,[2]; Table 4,> 20 µM
"NS(=O)(=O)c1ccc(CNc2nc(NCC(F)(F)F)c3nc(-c4ccc(C(=O)NC5CC5)cc4)cnc3n2)cc1 [Example H, N-Cyclopropyl-4-[2-(4-sulfamoyl-benzylamino)-4-(2,2,2-trifluoro-ethylamino)-pteridin-6-yl]-benzamide]",pEC50,"[1]; Hepatitis C virus, Huh-7, 72 h",6.00 to 6.52
same,CC50 at 3 days,[2]; Table 4,> 20 µM
"NS(=O)(=O)c1ccc(CNc2nc(NCC(F)(F)F)c3nc(-c4ccc(F)c(Cl)c4)cnc3n2)cc1 [Example I, 4-{[6-(3-Chloro-4-fluoro-phenyl)-4-(2,2,2-trifluoro-ethylamino)-pteridin-2-ylamino]-methyl}-benzenesulfonamide]",pEC50,"[1]; Hepatitis C virus, Huh-7, 72 h",6.00 to 6.52
same,CC50 at 3 days,[2]; Table 4,10 to 20 µM
